Data published in the NIST ThermoML archive (doi:10.1021/acs.jced.7b01026).

Experiments:
[1] = Molar enthalpy of transition or fusion; conditions: Crystal; DSC
[2] = molar heat capacity at constant pressure
[3] = Crystal; DTA
[4] = Boiling temperature at pressure P; conditions: 100 kPa; Glass; DTA

COc1cccc(OC)c1O [1,3-dimethoxy-2-hydroxybenzene]
Conditions	Molar enthalpy of transition or fusion [kcal/mol]	Normal melting temperature [°C]
[1]	12	–
[3]	–	53.2

[2], 101.33 kPa, Liquid, DSC
Conditions	molar heat capacity at constant pressure [J/K/mol]
333.16 K	317.27
373.15 K	328.21
413.14 K	333.46
453.12 K	347.18
493.1 K	357.35

CCC(O)c1ccccc1 (stereo not given) [1-phenyl-1-propanol]
[2], 101.33 kPa, Liquid, DSC
Conditions	molar heat capacity at constant pressure [J/K/mol]
273.15 K	279.6
323.15 K	319.91
373.15 K	338.03
423.15 K	352.6
473.15 K	368.94

Conditions	Boiling temperature at pressure P [°C]	Normal melting temperature [°C]
[3]	–	-10.6
[4]	-74.3	–

CC(O)Cc1ccccc1 (stereo not given) [1-phenyl-2-propanol]
[2], 101.33 kPa, Liquid, DSC
Conditions	molar heat capacity at constant pressure [J/K/mol]
273.15 K	282.05
323.15 K	311.06
373.15 K	329.31
423.15 K	345.52
473.15 K	354.78

Conditions	Boiling temperature at pressure P [°C]
[4]	-72.5

CCCOCC(C)O (stereo not given) [1-propoxy-2-propanol]
[2], 101.33 kPa, Liquid, DSC
Conditions	molar heat capacity at constant pressure [J/K/mol]
193.19 K	237.41
223.15 K	247.93
273.16 K	271.09
323.16 K	290.12
373.15 K	314.7

FC(F)C(F)(F)C(F)(F)C(F)(F)C(F)(F)C(F)(F)C(F)(F)C(F)(F)F [1H-perfluorooctane]
Conditions	Molar enthalpy of transition or fusion [kcal/mol]	Normal melting temperature [°C]
[1]	2.36	–
[3]	–	-18.8

[2], 101.33 kPa, Liquid, DSC
Conditions	molar heat capacity at constant pressure [J/K/mol]
258.16 K	446.11
273.16 K	458.71
298.16 K	480.14
323.16 K	494.84
373.14 K	526.76

Cc1ccc(C)o1 [2,5-dimethylfuran]
[2], 101.33 kPa, Liquid, DSC
Conditions	molar heat capacity at constant pressure [J/K/mol]
213.15 K	159.28
253.15 K	163.99
293.15 K	170.63
333.15 K	184.95

CC(C)c1ccccc1O [2-(1-methylethyl)phenol]
Conditions	Molar enthalpy of transition or fusion [kcal/mol]	Normal melting temperature [°C]
[1]	2.62	–
[3]	–	12

molar heat capacity at constant pressure [J/K/mol], [2], 101.33 kPa
Conditions	273.15 K	323.15 K	373.15 K	423.15 K	473.15 K
DSC, Liquid	–	307.38	321.55	337.89	354.37
Metastable liquid, DSC	281.92	–	–	–	–

C/C=C/c1ccc(O)c(OC)c1 [2-methoxy-4-(1E)-1-propen-1-yl-phenol]
Conditions	Molar enthalpy of transition or fusion [kcal/mol]	Normal melting temperature [°C]
[1]	2.8	–
[3]	–	21.6

[2], 101.33 kPa, Liquid, DSC
Conditions	molar heat capacity at constant pressure [J/K/mol]
298.15 K	326.92
323.15 K	336.45
373.15 K	348.43
423.15 K	381.6
473.15 K	387.19

Cc1ccccc1C=O [2-methylbenzaldehyde]
Conditions	Molar enthalpy of transition or fusion [kcal/mol]	Normal melting temperature [°C]
[1]	2.44	–
[3]	–	-39.7

[2], 101.33 kPa, Liquid, DSC
Conditions	molar heat capacity at constant pressure [J/K/mol]
238.16 K	184.43
293.16 K	199.57
348.15 K	217.83
403.13 K	230.69
458.11 K	261.08

CC(CO)c1ccccc1 (stereo not given) [2-phenyl-1-propanol]
[2], 101.33 kPa, Liquid, DSC
Conditions	molar heat capacity at constant pressure [J/K/mol]
273.15 K	273.34
323.15 K	300.98
373.15 K	325.91
423.15 K	341.98
473.15 K	351.78

Conditions	Boiling temperature at pressure P [°C]
[4]	-75.5

Cc1cccc(C=O)c1 [3-methylbenzaldehyde]
[2], 101.33 kPa, Liquid, DSC
Conditions	molar heat capacity at constant pressure [J/K/mol]
273.17 K	189.47
313.16 K	205.93
353.15 K	219.75
393.14 K	235.61
453.11 K	258.08

Conditions	Normal melting temperature [°C]
[3]	-48.4

Cc1cccc(CO)c1 [3-methylbenzyl alcohol]
Conditions	Molar enthalpy of transition or fusion [kcal/mol]	Normal melting temperature [°C]
[1]	3.24	–
[3]	–	-8.8

[2], 101.33 kPa, DSC, Liquid
Conditions	molar heat capacity at constant pressure [J/K/mol]
266.15 K	222.22
306.15 K	250.8
356.15 K	281.1
406.15 K	295.27
456.15 K	308.1

Cc1ccc(C=O)cc1 [4-methylbenzaldehyde]
Conditions	Molar enthalpy of transition or fusion [kcal/mol]	Normal melting temperature [°C]
[1]	2.64	–
[3]	–	-10.0

[2], 101.33 kPa, DSC, Liquid
Conditions	molar heat capacity at constant pressure [J/K/mol]
273.17 K	191.4
313.16 K	204.25
353.15 K	216.27
393.14 K	232.37
453.11 K	250.99

Cc1ccc(C(=O)O)cc1 [4-methylbenzoic acid]
Conditions	Molar enthalpy of transition or fusion [kcal/mol]	Normal melting temperature [°C]
[1]	5.14	–
[3]	–	179.0

[2], 101.33 kPa, Liquid, DSC
Conditions	molar heat capacity at constant pressure [J/K/mol]
458.15 K	331.25
473.15 K	338.33
488.15 K	347.59
503.15 K	353.98
523.15 K	362.02

Cc1ccc(C=O)o1 [5-methylfurfural]
Conditions	Molar enthalpy of transition or fusion [kcal/mol]	Normal melting temperature [°C]
[1]	2.76	–
[3]	–	-32.6

[2], 101.33 kPa, Liquid, DSC
Conditions	molar heat capacity at constant pressure [J/K/mol]
250.15 K	180.47
300.15 K	192.47
350.14 K	202.49
400.13 K	219.34
450.1 K	233.54

CCOC(=O)Cc1ccccc1 [ethyl phenylacetate]
Conditions	Molar enthalpy of transition or fusion [kcal/mol]	Normal melting temperature [°C]
[1]	4.32	–
[3]	–	-29

[2], 101.33 kPa, Liquid, DSC
Conditions	molar heat capacity at constant pressure [J/K/mol]
253.15 K	271.75
293.15 K	288.83
333.15 K	292.77
373.15 K	306.89
413.15 K	326.27

CCCCCCC1CCCCC1 [hexylcyclohexane]
Conditions	Molar enthalpy of transition or fusion [kcal/mol]	Normal melting temperature [°C]
[1]	4.91	–
[3]	–	-48.2

[2], 101.33 kPa, Liquid, DSC
Conditions	molar heat capacity at constant pressure [J/K/mol]
228.16 K	292.03
288.16 K	330.24
348.14 K	361.21
408.13 K	408.85
468.09 K	463.72

CC(=O)Oc1ccccc1 [phenyl ethanoate]
Conditions	Molar enthalpy of transition or fusion [kcal/mol]	Normal melting temperature [°C]
[1]	3.06	–
[3]	–	-7

[2], 101.33 kPa, Liquid, DSC
Conditions	molar heat capacity at constant pressure [J/K/mol]
253.15 K	220.42
293.15 K	224.78
333.15 K	240.03
373.15 K	255.41
413.15 K	269.44

CCCCCC(=O)CCCCC [undecan-6-one]
Conditions	Molar enthalpy of transition or fusion [kcal/mol]	Normal melting temperature [°C]
[1]	7.49	–
[3]	–	13

[2], 101.33 kPa, Liquid, DSC
Conditions	molar heat capacity at constant pressure [J/K/mol]
293.16 K	363.74
343.16 K	381.62
373.15 K	402.4
423.13 K	422.49
473.1 K	463.02
